Holding throughout (type): cell-based
Experiment [1] has as its system Candida albicans ATCC 10231. Put plainly: Test for adequate preservation (European Pharmacopea), 1,2-diols and 1,2-diol mixtures in O/W emulsion. The settings on record: 3% diol(s) in O/W emulsion. On the procedure: (§1) A test for adequate preservation was carried out in accordance with the European Pharmacopea. The test thus consists of the contamination of the formulation, if possible in its final ratio, with a prescribed inoculum of suitable microorganisms, storage of the inoculated formulation at a specific temperature, taking of samples from the vessel at specific intervals and determination of the number of microorganisms in the samples taken in this way. The preserving properties are adequate if, under the conditions of the test, there is a distinct reduction or optionally no increase in the germ count in the inoculated formulations after the prescribed times at the prescribed temperatures. Experimental details of the test procedure are described in the European Pharmacopea (ISBN 3-7692-2768-9; 2001 supplement to the 3rd Edition, page 421-422, chapter 5.1.3). The initial germ count (CFU/g; “0” value) was in the range of 240,000 to 300,000 in the various test series. For the tests for adequate preservation, (a) potentially synergistically active mixtures taken into account and (b), for comparison purposes, the corresponding unmixed 1,2-diols were incorporated in O/W emulsions. […] The variation in the total concentration of 1,2-diols or 1,2-diol mixtures in the O/W emulsions was compensated for by increasing or reducing the water content, so that otherwise identical formulations always comprised 100 parts by weight in total.

Experiment [2] deals with Escherichia coli ATCC 8739. The experiment is described as above. The note with it: 3% diol(s) in O/W emulsion. On the procedure:
as §1

Experiment [3] relates to Brevibacterium epidermidis ATCC 35514. In words: MIC, agar dilution method. The settings on record: ATCC35514, Mueller-Hinton agar, 18 h at 36° C. On the procedure:
(§2) Petri dishes 9.0 cm in diameter were charged with 13.5 ml freshly prepared Mueller-Hinton agar (Merck, Ref. 1.05437 or Wilkins-Chalgren agar boullion, Oxoid, Ref. CM 643, supplemented with log agar-agar/liter) kept liquid at 50° C., to which the various concentrations of the diluted samples were added in 10% (V/V)=1.5 ml. Mueller-Hinton agar that contained 3% Tween80 (Merck, Ref. 8.22 187) was used for the test germ Malassezia furfur. In each case 5 ml of the samples were diluted in distilled water and made up to 10 ml. The further test concentrations of the particular dilution series, which were prepared in the form of geometric series, were prepared by progressive 1:2 dilution of this batch with distilled water. […] Two agar plates were poured per test concentration and nutrient medium. After solidification and drying (approx. 1 h at 37° C.), the test plates were inoculated in point form with, in each case, 1 μl of the test germ suspensions listed below. To check purity and identity the bacteria that grow aerobically (Brevibacterium epidermidis, Corynebacterium xerosis, Staphylococcus epidermidis) were [lacuna] on Columbia blood agar (BioMérieux, Ref. 43049). The mould Aspergillus niger, the yeast Candida albicans and the two skin fungi Trichophyton mentagrophytes and Epidermophyton floccosum were cultured on Sabouraud agar (BioMérieux, Ref. 43555). Malassezia furfur was cultured on Sabourad HLT agar with disinhibitors (addition of 3% Tween80: 1%; lecithin: 0.3%; histidine: 0.1%; Merck, Ref. 1.18368). Propionibacterium acnes was cultured on Schaedler agar (BioMérieux, Ref. 43273). Further details on the test germs can be taken from Table 5. The preparation of the test germ suspensions of the bacterial germs that grow aerobically was carried out by incubation of Mueller-Hinton broth (Merck, Ref. 1.10293) which had been inoculated with a few individual colonies of the relevant test germs, at 36° C. After a distinct turbidity had been obtained, sterile nutrient broth was added to the suspensions in such an amount that the turbidity thereof corresponded to McFarland standard 0.5 (approx. 1.5×10^8 CFU/ml). All test germ suspensions with the exception of Propionibacterium acnes were diluted again 1:10 with sterile broth and the germ count thereof was determined by the surface method using a Spiralometer (results: see Table 5). The MIC (minimum inhibitory concentration) was regarded as the lowest concentration of active compound at which macroscopically there is no growth. Minimal, barely visible growth or few small individual colonies were evaluated as inhibition.

The subject of experiment [4] is Corynebacterium xerosis ATCC 7711. Put plainly: MIC, agar dilution method. The settings on record: ATCC7711, Mueller-Hinton agar, 18 h at 36° C. On the procedure: as §2
In experiment [5] the test system is Staphylococcus epidermidis ATCC 12228. In words: MIC, agar dilution method. The note with it: ATCC12228, Mueller-Hinton agar, 18 h at 36° C. On the procedure: as §2
Experiment [6] deals with Propionibacterium acnes ATCC 11829. Put plainly: MIC, agar dilution method. The settings on record: Cutibacterium acnes, ATCC11829, anaerobic, Wilkins-Chalgren agar, 72 h at 30° C. On the procedure: Petri dishes 9.0 cm in diameter were charged with 13.5 ml freshly prepared Mueller-Hinton agar (Merck, Ref. 1.05437 or Wilkins-Chalgren agar boullion, Oxoid, Ref. CM 643, supplemented with log agar-agar/liter) kept liquid at 50° C., to which the various concentrations of the diluted samples were added in 10% (V/V)=1.5 ml. Mueller-Hinton agar that contained 3% Tween80 (Merck, Ref. 8.22 187) was used for the test germ Malassezia furfur. In each case 5 ml of the samples were diluted in distilled water and made up to 10 ml. The further test concentrations of the particular dilution series, which were prepared in the form of geometric series, were prepared by progressive 1:2 dilution of this batch with distilled water. […] Two agar plates were poured per test concentration and nutrient medium. After solidification and drying (approx. 1 h at 37° C.), the test plates were inoculated in point form with, in each case, 1 μl of the test germ suspensions listed below. To check purity and identity the bacteria that grow aerobically (Brevibacterium epidermidis, Corynebacterium xerosis, Staphylococcus epidermidis) were [lacuna] on Columbia blood agar (BioMérieux, Ref. 43049). […] Minimal, barely visible growth or few small individual colonies were evaluated as inhibition.

Converted amounts (≈) assume the structure as drawn.

Regarding `CCCCCCC(O)CO` (stereo not drawn) [OC3, 1,2-octanediol], the “germ count C. albicans” value in experiment [1] (0′-count (initial germ count)) is listed as 250,000 CFU/ml; in experiment [1] (24 h), 3,200 CFU/ml; in experiment [1] (48 h) it was less than 100 CFU/ml; in experiment [1] (4 d), 0 CFU/ml; in experiment [1] (7 d) it was 0 CFU/ml; in experiment [1] (14 d), 0 CFU/ml. Further, the “germ count C. albicans” value in experiment [1] (28 d) is listed as 0 CFU/ml. Moreover, the “germ count E. coli” value in experiment [2] (0′-count (initial germ count)) is reported as 300,000 CFU/ml; in experiment [2] (24 h), 0 CFU/ml; in experiment [2] (48 h), 0 CFU/ml; in experiment [2] (4 d), 0 CFU/ml; in experiment [2] (7 d) it was 0 CFU/ml; in experiment [2] (14 d) it was 0 CFU/ml. In addition, in experiment [2] (28 d), the “germ count E. coli” value turned out to be 0 CFU/ml. Also, the MIC in experiment [3] amounted to 3.12 mg/mL (≈ 21.4 mM); in experiment [4] it was 6.25 mg/mL (≈ 42.7 mM); in experiment [5] it was 12.5 mg/mL (≈ 85.5 mM); in experiment [6], 6.25 mg/mL (≈ 42.7 mM).
For the compound `CCCCC(O)CO` (stereo not drawn) [HE3, 1,2-hexanediol], the “germ count C. albicans” value in experiment [1] (0′-count (initial germ count)) is 250,000 CFU/ml; in experiment [1] (24 h) it was 120,000 CFU/ml; in experiment [1] (48 h) it was 5,600 CFU/ml; in experiment [1] (4 d) it was 0 CFU/ml; in experiment [1] (7 d), 0 CFU/ml; in experiment [1] (14 d), 0 CFU/ml. Further, the “germ count C. albicans” value in experiment [1] (28 d) turned out to be 0 CFU/ml. Moreover, the “germ count E. coli” value in experiment [2] (0′-count (initial germ count)) is on record as 300,000 CFU/ml; in experiment [2] (24 h) it was less than 100 CFU/ml; in experiment [2] (48 h) it was less than 100 CFU/ml; in experiment [2] (4 d), 0 CFU/ml; in experiment [2] (7 d), 0 CFU/ml; in experiment [2] (14 d), 0 CFU/ml. In addition, the “germ count E. coli” value in experiment [2] (28 d) was 0 CFU/ml. Besides, the minimal inhibitory concentration (MIC) in experiment [3] is 25 mg/mL (≈ 212 mM); in experiment [4] it was 12.5 mg/mL (≈ 106 mM); in experiment [5] it was 25 mg/mL (≈ 212 mM); in experiment [6] it was 25 mg/mL (≈ 212 mM).

Source of the values: patent US7582681B2, “Synergistic mixtures of 1,2-alkane diols” (Symrise GmbH & Co. KG, priority 2002, dated 2009).
